Source: patent US9309198B2, “N-[3-(2-carboxyethyl)phenyl]piperidin-1-ylacetamide derivatives and use thereof as activators of soluble guanylate cyclase” (Bayer Pharma Aktiengesellschaft, priority 2012, dated 2016)
Counter-ions that a name gives are not always drawn.

How the values were obtained:
[1] = target: T1, soluble guanylate cyclase (sGC) (Rattus norvegicus, UniProt P20595); assay: Stimulation of sGC enzyme activity (PPi detection, luciferase luminescence); type: biochemical; conditions: for EC50: read-out: EC50 (half-maximal effective concentration), activating action at the sGC enzyme in vitro
T1 construct: made in house
T1 sequence (P20595 1-619): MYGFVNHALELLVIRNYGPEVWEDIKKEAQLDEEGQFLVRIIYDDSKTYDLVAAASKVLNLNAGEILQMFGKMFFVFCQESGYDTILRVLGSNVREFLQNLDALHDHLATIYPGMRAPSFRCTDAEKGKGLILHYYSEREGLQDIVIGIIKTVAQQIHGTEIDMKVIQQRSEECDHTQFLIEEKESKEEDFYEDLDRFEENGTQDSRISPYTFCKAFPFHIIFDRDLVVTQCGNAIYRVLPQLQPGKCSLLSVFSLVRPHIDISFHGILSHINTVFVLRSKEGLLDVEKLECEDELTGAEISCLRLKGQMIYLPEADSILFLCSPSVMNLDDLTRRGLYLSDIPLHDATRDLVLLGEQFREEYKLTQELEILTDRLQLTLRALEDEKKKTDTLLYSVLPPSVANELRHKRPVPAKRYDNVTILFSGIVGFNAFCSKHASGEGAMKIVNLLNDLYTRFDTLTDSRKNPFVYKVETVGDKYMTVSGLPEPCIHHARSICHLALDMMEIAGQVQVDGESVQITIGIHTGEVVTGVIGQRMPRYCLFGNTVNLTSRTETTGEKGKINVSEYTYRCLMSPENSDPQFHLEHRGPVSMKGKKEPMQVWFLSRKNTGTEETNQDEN
T1 sequence (P19686 1-690 partner): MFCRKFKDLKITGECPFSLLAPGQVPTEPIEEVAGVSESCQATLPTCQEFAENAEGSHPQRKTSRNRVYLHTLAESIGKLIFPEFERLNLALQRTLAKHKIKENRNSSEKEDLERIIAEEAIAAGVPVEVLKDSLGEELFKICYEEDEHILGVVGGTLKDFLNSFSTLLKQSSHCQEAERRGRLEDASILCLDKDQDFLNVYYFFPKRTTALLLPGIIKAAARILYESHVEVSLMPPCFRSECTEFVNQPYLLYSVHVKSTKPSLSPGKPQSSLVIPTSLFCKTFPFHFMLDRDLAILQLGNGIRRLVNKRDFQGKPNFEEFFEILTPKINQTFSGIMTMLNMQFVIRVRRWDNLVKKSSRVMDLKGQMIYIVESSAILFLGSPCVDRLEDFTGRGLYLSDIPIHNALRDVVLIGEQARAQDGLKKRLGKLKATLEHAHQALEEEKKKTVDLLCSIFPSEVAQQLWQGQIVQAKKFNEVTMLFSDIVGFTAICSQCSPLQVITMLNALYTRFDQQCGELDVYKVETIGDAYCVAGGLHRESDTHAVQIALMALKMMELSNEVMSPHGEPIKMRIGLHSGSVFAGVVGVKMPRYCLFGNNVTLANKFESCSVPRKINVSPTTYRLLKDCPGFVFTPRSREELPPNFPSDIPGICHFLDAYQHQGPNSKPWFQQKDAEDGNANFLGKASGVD
Method: B-3. Stimulation of sGC Enzyme Activity
Soluble guanylate cyclase (sGC) converts on stimulation GTP into cGMP and pyrophosphate (PPi). PPi is detected with the aid of the assay described below. The signal produced in the assay increases as the reaction progresses and serves as a measure of the sGC enzyme activity under the given stimulation.
To carry out the assay, 29 μl of enzyme solution [0-10 nM soluble guanylate cyclase (prepared according to Hönicka et al., J. Mol. Med. 77, 14-23 (1999)) in 50 mM TEA, 2 mM MgCl2, 0.1% BSA (fraction V), 0.005% Brij®, pH 7.5] are initially introduced into a microplate, and 1 μl of the substance to be tested (as a serially diluted solution in DMSO) is added. The mixture is incubated at room temperature for 10 min. Then 20 μl of detection mix [1.2 nM Firefly Luciferase (Photinus pyralis luciferase, Promega), 29 μM dehydroluciferin (prepared according to Bitler & McElroy, Arch. Biochem. Biophys. 72, 358 (1957)), 122 μM luciferin (Promega), 153 μM ATP (Sigma) and 0.4 mM DTT (Sigma) in 50 mM TEA, 2 mM MgCl2, 0.1% BSA (fraction V), 0.005% Brij®, pH 7.5] are added. The enzyme reaction is started by adding 20 μl of substrate solution [1.25 mM guanosine 5′-triphosphate (Sigma) in 50 mM TEA, 2 mM MgCl2, 0.1% BSA (fraction V), 0.005% Brij®, pH 7.5] and measured continuously in a luminometer. The extent of the stimulation by the substance to be tested can be determined relative to the signal of the unstimulated reaction.
The activation of haem-free guanylate cyclase is examined by addition of 25 μM of 1H-1,2,4-oxadiazolo[4,3-a]quinoxalin-1-one (ODQ) to the enzyme solution and subsequent incubation for 30 minutes and compared to the stimulation of the native enzyme.

[2] = target: T2, recombinant guanylate cyclase reporter cell line (sGC, CHO reporter cell) (Rattus norvegicus, UniProt P20595); assay: Effect on a recombinant guanylate cyclase reporter cell line (CHO reporter cell); type: cell-based
T2 construct: expressed in transfected cells; host or cells: CHO reporter cell line
T2 sequence (P20595 1-619): T1 sequence (P20595 1-619)
T2 sequence (P19686 1-690 partner): T1 sequence (P19686 1-690 partner)
Method: B-2. Effect on a Recombinant Guanylate Cyclase Reporter Cell Line The cellular activity of the compounds according to the invention is determined using a recombinant guanylate cyclase reporter cell line, as described in F. Wunder et al., Anal. Biochem. 339, 104-112 (2005).

Question: How did the “MEC (minimum effective concentration), activating action at the sGC enzyme in vitro” value (shortened to “MEC … at the sGC enzyme in vitro”) [1] turn out when `O=C(Nc1cc(CC2(C(=O)O)CC2)ccc1F)C(C1CCCC1)N1CCc2ccccc2C1` (racemic) [Example 53, rac-1-(3-{[Cyclopentyl(3,4-dihydroisoquinolin-2(1H)-yl)acetyl]amino}-4-fluorobenzyl)cyclopropanecarboxylic acid trifluoroacetate] was run?
Answer: 160 nM

Question: What about the EC50 [1] of the same compound?
Answer: 840 nM

Question: What about the “MEC (minimum effective concentration), sGC-activating activity in the CHO reporter cell in vitro” value (“MEC … in the CHO reporter cell in vitro” below) [2] of the same compound?
Answer: 100 nM

Question: For `CCC1CCN(C(C(=O)Nc2cc(CC3(C(=O)O)CC3)ccc2F)C(C)C(F)(F)F)CC1` (single isomer, unassigned) [Example 8, 1-(3-{[2-(4-ethylpiperidin-1-yl)-4,4,4-trifluoro-3-methylbutanoyl]amino}-4-fluorobenzyl)cyclopropanecarboxylic acid], which “MEC … at the sGC enzyme in vitro” value [1] is on record?
Answer: 1.2 nM

Question: What about the EC50 [1] of the same compound?
Answer: 21 nM

Question: And the “MEC … in the CHO reporter cell in vitro” value [2]?
Answer: 0.3 nM

Question: What does the source list for `CCC1CCN(C(C(=O)Nc2cc(CCC(=O)O)ccc2Cl)C(C)C(F)(F)F)CC1` (single isomer, unassigned) [Example 11, 3-(4-chloro-3-{[2-(4-ethylpiperidin-1-yl)-4,4,4-trifluoro-3-methylbutanoyl]amino}phenyl)propanoic acid]?
Answer: MEC (minimum effective concentration), activating action at the sGC enzyme in vitro [1]: 17 nM; EC50 [1]: 390 nM; MEC (minimum effective concentration), sGC-activating activity in the CHO reporter cell in vitro [2]: 10 nM

Question: `CCC1CCN([C@@H](C(=O)Nc2cc(CC3(C(=O)O)CC3)ccc2F)[C@@H](C)C(F)(F)F)CC1` (single isomer, unassigned) [Example 39] was tested. Which “MEC … at the sGC enzyme in vitro” value [1] did it give?
Answer: 1.1 nM

Question: And the EC50 [1]?
Answer: 7.9 nM

Question: And the “MEC … in the CHO reporter cell in vitro” value [2]?
Answer: 0.3 nM

Question: With `C[C@H]([C@H](C(=O)Nc1cc(C[C@H](C)C(=O)O)ccc1Cl)N1CCC2(CC1)CC2)C(F)(F)F` (single isomer, unassigned) [Example 46] as the compound, how does the “MEC … at the sGC enzyme in vitro” value [1] read?
Answer: 17 nM

Question: What about the EC50 [1] of the same compound?
Answer: 210 nM

Question: What about the “MEC … in the CHO reporter cell in vitro” value [2] of the same compound?
Answer: 10 nM

Question: Which “MEC … at the sGC enzyme in vitro” value [1] does the source give for `C[C@H](CC(=O)O)c1ccc(Cl)c(NC(=O)[C@@H]([C@@H](C)C(F)(F)F)N2CCC3(CC2)CC3)c1` (single isomer, unassigned) [Example 47] here?
Answer: 3.9 nM

Question: What about the EC50 [1] of the same compound?
Answer: 81 nM

Question: And the “MEC … in the CHO reporter cell in vitro” value [2]?
Answer: 1 nM

Question: What does the source list for `CC1CCN([C@@H](C(=O)Nc2cc([C@H](C)CC(=O)O)ccc2Cl)[C@@H](C)C(F)(F)F)CC1` (single isomer, unassigned) [Example 48]?
Answer: MEC (minimum effective concentration), activating action at the sGC enzyme in vitro [1]: 1.1 nM; EC50 [1]: 33 nM; MEC (minimum effective concentration), sGC-activating activity in the CHO reporter cell in vitro [2]: 3 nM

Question: For `CC1CCN(C(C(=O)Nc2cc(CC3(C(=O)O)CC3)ccc2F)C(C)C(F)(F)F)CC1` (single isomer, unassigned; (+)) [Example 36, (+)-1-(4-Fluoro-3-{[4,4,4-trifluoro-3-methyl-2-(4-methylpiperidin-1-yl)butanoyl]amino}benzyl)cyclopropanecarboxylic acid], which “MEC … at the sGC enzyme in vitro” value [1] is on record?
Answer: 3 nM

Question: And the EC50 [1]?
Answer: 25 nM

Question: What about the “MEC … in the CHO reporter cell in vitro” value [2] of the same compound?
Answer: 2.3 nM

Question: With `CC1CCN([C@@H](C(=O)Nc2cc(C[C@@H](C)C(=O)O)ccc2F)[C@@H](C)C(F)(F)F)CC1` [Example 30] as the compound, how does the “MEC … in the CHO reporter cell in vitro” value [2] read?
Answer: 300 nM

Question: For `CC1CCN([C@@H](C(=O)Nc2cc(C[C@@H](C)C(=O)O)ccc2Cl)[C@@H](C)C(F)(F)F)CC1` [Example 31], which “MEC … in the CHO reporter cell in vitro” value [2] is on record?
Answer: 100 nM

Question: With `CC1CCN([C@@H](C(=O)Nc2cc(C[C@H](C)C(=O)O)ccc2F)[C@@H](C)C(F)(F)F)CC1` [Example 32] as the compound, how does the “MEC … in the CHO reporter cell in vitro” value [2] read?
Answer: 30 nM

Question: For `C[C@H](Cc1ccc(F)c(NC(=O)[C@@H]([C@@H](C)C(F)(F)F)N2CCC3(CC2)CC3)c1)C(=O)O` [Example 33], which “MEC … in the CHO reporter cell in vitro” value [2] is on record?
Answer: 300 nM
